From BindingDB's records for doi:10.1074/jbc.M501100200 (University of Texas Southwestern Medical Center, 2005) come the findings set out here.

Common to all, as to assay: DHODH Inhibition Assay
Test [1] has as its target T1, Dihydroorotate dehydrogenase (quinone), mitochondrial [30-395] (Homo sapiens, UniProt Q02127).
T1 construct: 30-395
The protocol:
(§1) The assays were carried out by using a colorimetric DCIP method, which uses the colorimetric reagent 2, 6-dichlorophenolindophenol as the final electron acceptor. DCIP reduction is stoichiometrically equivalent to oxidation of dihydroorotate. Changes in absorbance were quantified on a plate reader and data were analyzed to measure the reduction of DCIP as a decrease in absorbance at 600 nm. For the determination of the IC50 values (concentration of inhibitor required for 50% inhibition) different inhibitor concentrations were applied.

In test [2] the target is T2, Dihydroorotate dehydrogenase (quinone), mitochondrial (Plasmodium falciparum, UniProt Q54A96).
T2 sequence (Q54A96 whole entry): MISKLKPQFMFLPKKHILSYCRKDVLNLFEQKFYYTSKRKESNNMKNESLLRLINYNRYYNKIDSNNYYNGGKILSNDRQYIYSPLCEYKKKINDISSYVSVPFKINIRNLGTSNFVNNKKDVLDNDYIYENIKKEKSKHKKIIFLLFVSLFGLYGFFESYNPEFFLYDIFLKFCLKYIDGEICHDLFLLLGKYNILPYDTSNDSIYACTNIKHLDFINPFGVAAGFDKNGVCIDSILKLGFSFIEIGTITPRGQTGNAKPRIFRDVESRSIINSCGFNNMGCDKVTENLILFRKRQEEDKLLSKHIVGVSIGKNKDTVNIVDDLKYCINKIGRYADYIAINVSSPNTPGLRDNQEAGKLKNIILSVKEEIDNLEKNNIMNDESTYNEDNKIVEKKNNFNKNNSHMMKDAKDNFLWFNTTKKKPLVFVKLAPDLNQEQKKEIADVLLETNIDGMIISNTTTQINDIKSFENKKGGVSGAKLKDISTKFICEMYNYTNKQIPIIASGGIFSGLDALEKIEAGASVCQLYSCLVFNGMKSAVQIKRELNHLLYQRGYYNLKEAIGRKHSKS
Conditions: pH 8; 22 °C. The protocol: as §1

Test [3] addresses Dihydroorotate dehydrogenase (quinone), mitochondrial [H185A] (Plasmodium falciparum, UniProt Q54A96, H185A). The protocol:
as §1

The target of test [4] is Dihydroorotate dehydrogenase (quinone), mitochondrial [R265A] (Plasmodium falciparum, UniProt Q54A96, R265A). The protocol: as §1
Chain of Dihydroorotate dehydrogenase (quinone), mitochondrial [R265A] (Q54A96 whole entry R265A): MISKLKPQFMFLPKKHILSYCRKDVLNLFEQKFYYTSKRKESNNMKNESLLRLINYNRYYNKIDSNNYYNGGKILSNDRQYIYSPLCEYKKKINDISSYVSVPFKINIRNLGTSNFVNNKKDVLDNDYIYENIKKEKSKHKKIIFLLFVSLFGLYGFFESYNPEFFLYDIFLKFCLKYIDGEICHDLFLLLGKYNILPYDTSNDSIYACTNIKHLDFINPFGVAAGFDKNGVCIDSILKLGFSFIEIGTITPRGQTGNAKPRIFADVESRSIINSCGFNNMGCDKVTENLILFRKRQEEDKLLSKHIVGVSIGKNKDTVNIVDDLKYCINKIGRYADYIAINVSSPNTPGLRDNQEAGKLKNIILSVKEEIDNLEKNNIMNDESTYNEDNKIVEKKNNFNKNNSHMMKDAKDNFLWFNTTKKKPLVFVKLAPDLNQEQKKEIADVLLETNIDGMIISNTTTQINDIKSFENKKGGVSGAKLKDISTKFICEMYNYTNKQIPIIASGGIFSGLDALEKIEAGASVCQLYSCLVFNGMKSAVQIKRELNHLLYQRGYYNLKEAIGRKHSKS

Bounds are passed on as bounds.

T1 sequence (Q02127 30-395): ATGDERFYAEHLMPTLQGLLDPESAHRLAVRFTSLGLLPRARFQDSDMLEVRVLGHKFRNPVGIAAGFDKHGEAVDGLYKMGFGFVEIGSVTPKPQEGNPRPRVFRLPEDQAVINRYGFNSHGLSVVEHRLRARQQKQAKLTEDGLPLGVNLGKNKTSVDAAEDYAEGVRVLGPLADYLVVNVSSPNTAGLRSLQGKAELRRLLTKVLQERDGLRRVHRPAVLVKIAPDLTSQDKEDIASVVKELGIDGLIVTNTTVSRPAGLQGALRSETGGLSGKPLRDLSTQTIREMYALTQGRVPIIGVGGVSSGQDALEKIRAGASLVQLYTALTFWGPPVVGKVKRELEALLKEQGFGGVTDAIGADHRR
Chain of Dihydroorotate dehydrogenase (quinone), mitochondrial [H185A] (Q54A96 whole entry H185A): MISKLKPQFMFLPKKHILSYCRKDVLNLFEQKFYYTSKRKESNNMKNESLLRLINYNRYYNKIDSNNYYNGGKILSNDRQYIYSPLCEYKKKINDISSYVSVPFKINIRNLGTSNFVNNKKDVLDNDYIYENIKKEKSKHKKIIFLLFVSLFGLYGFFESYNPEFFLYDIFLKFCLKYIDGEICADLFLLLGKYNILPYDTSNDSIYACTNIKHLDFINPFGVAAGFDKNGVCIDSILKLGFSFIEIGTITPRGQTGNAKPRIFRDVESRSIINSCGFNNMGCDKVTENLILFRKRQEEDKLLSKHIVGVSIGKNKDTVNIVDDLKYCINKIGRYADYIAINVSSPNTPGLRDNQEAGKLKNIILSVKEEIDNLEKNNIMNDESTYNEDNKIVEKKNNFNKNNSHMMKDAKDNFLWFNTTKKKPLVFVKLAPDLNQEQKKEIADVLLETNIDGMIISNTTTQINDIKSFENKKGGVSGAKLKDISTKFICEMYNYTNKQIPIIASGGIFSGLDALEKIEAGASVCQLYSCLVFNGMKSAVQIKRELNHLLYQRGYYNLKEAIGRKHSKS

What is called IC50 is the concentration that inhibits the measured activity by half. A high value points to weaker potency. As to `O=C(Nc1ccccc1C(F)(F)F)Nc1cccc2ccccc12` [1-naphthalen-1-yl-3-[2-(trifluoromethyl)phenyl]urea], the IC50 was above 1000 µM in test [1], 400 nM in test [2], above 200 µM in test [3] and 340 nM in test [4].
On the same counts, the results for `Cc1cc(Br)ccc1NC(=O)c1ccc2ccccc2c1` [ChemBridge compound no. 2] are 210 µM, 50 nM, 570 µM and 50 nM.
With `Cc1c(C(=O)Nc2cc(Cl)cc(Cl)c2)cccc1[N+](=O)[O-]` [Asinex compound no. 6], the IC50 in test [1] worked out at 200 µM; in test [2], 16 nM; in test [3] it was 130 µM; in test [4], 400 nM.
Turning to `O=C(Nc1ccc(Cl)cc1)Nc1cccc2cccnc12` [3-(4-chlorophenyl)-1-quinolin-8-ylurea], the IC50 in test [1] was 116 µM; in test [2], 780 nM; in test [3], above 400 µM; in test [4], 2000 nM.
The corresponding values for `COc1ccccc1NC(=O)Nc1cccc2ccccc12` [3-(2-methoxyphenyl)-1-naphthalen-1-ylurea] are 112 µM, 230 nM, 140 µM and 240 nM.
As for `O=C(Nc1ccc(Cl)cc1Cl)c1ccc2ccccc2c1` [N-(2,4-dichlorophenyl)naphthalene-2-carboxamide], the IC50 is above 50 µM in test [1], 50 nM in test [2], above 50 µM in test [3] and 80 nM in test [4].
`Cc1c(C(=O)Nc2ccc(F)c(F)c2)cccc1[N+](=O)[O-]` [N-(3,4-difluorophenyl)-2-methyl-3-nitrobenzamide]: the IC50 in test [1] came to 200 µM; in test [2], 260 nM; in test [3], 250 µM; in test [4], 820 nM.
For the molecule `Cc1c(C(=O)Nc2cccc(C(F)(F)F)c2)cccc1[N+](=O)[O-]` [2-methyl-3-nitro-N-[3-(trifluoromethyl)phenyl]benzamide], the IC50 in test [1] was found to be 150 µM; in test [2], 80 nM; in test [3], 120 µM; in test [4], 370 nM.
On the same counts, the results for `O=C(Nc1ccccc1F)c1ccc2ccccc2c1` [N-(2-fluorophenyl)naphthalene-2-carboxamide] are 34 µM, 470 nM, 210 µM and 300 nM.
The corresponding values for `Cc1c(C(=O)Nc2cccc3ccccc23)cccc1[N+](=O)[O-]` [2-methyl-N-(naphthalen-1-yl)-3-nitrobenzamide] are 100 µM, 80 nM, 180 µM and 480 nM.
On the same counts, the results for `Cc1c(C(=O)Nc2cccc(Br)c2)cccc1[N+](=O)[O-]` [N-(3-bromophenyl)-2-methyl-3-nitrobenzamide] are 105 µM, 60 nM, 140 µM and 1200 nM.
As for `Cc1c(C(=O)Nc2ccc(Cl)c(Cl)c2)cccc1[N+](=O)[O-]` [N-(3,4-dichlorophenyl)-2-methyl-3-nitrobenzamide], the IC50 in test [1] amounted to 72 µM; in test [2], 80 nM; in test [3], 60 µM; in test [4] it was 2800 nM.
For `Cc1c(C(=O)Nc2ccc(F)c(Cl)c2)cccc1[N+](=O)[O-]` [N-(3-chloro-4-fluorophenyl)-2-methyl-3-nitrobenzamide], the IC50 in test [1] amounted to 116 µM; in test [2] it was 100 nM; in test [3], 130 µM; in test [4] it was 500 nM.
